This note sets out measurements from ChEMBL document CHEMBL1152844, “Synthesis and anti-HIV studies of 2- and 3-adamantyl-substituted thiazolidin-4-ones” (Eur J Med Chem, 2009).

Structures are written as SMILES. The source made the active and inactive calls. The rule behind the calls is not given here.

In series [1] the target is Human immunodeficiency virus type 1 reverse transcriptase (Human immunodeficiency virus 1) (UniProt Q72547). The experiment in a line: Ratio of Ki to Km for HIV1 non-nucleoside reverse transcriptase.
The next series concerns Sindbis virus. The series is described as follows: Antiviral activity against Sindbis virus infected in african green monkey Vero cells. The class given is functional, organism-based.
Series [2] relates to Mammalian orthoreovirus 1. The experiment in a line: Antiviral activity against Reovirus 1 infected in african green monkey Vero cells. Format: functional, organism-based.
For series [3], the system named is Coxsackievirus B4. The series is described as follows: Antiviral activity against Coxsackievirus B4 infected in human HeLa cells. Format: functional, organism-based.
The next series relates to Human alphaherpesvirus 1. The experiment in a line: Antiviral activity against Herpes simplex virus type 1 infected in HEL cells. Format: functional, organism-based.
The test system of a further series is Feline coronavirus. The series is described as follows: Antiviral activity against Feline coronavirus infected in crandel feline kidney cells. Format: functional, organism-based.
The test system of a further series is Human alphaherpesvirus 2. The series is described as follows: Antiviral activity against Herpes simplex virus type 2 infected in HEL cells. The class given is functional, organism-based.
A further series relates to Human respirovirus 3. The experiment in a line: Antiviral activity against Parainfluenza virus type 3 infected in african green monkey Vero cells. Format: functional, organism-based.
The subject of series [4] is Respiratory syncytial virus. The series is described as follows: Antiviral activity against Respiratory syncytial virus infected in human HeLa cells. The class given is functional, organism-based.
The test system of series [5] is Influenza A virus. The series is described as follows: Antiviral activity against Influenza virus type A H3N2 infected in MDCK cells. The class given is functional, organism-based.
A short description of series [6]: Selectivity index, ratio of CC50 for human CEM cells to EC50 for HIV1 3B. The conditions noted are these: read-out: Ratio CC50/EC50. The class given is toxicity, cell-based, CCRF-CEM.
For series [7], the system named is Vesicular stomatitis virus. The series is described as follows: Antiviral activity against Vesicular stomatitis virus infected in human HeLa cells. The class given is functional, organism-based.
Series [8] has as its system Vesicular stomatitis virus. The series is described as follows: Antiviral activity against Vesicular stomatitis virus infected in HEL cells. Format: functional, organism-based.
For the next series, the system named is Punta Toro virus. The series is described as follows: Antiviral activity against Punta Toro virus infected in african green monkey Vero cells. The class given is functional, organism-based.
In another series the test system is Vaccinia virus. The experiment in a line: Antiviral activity against Vaccinia virus infected in HEL cells. Format: functional, organism-based. The conditions noted are these: Orthopoxvirus vaccinia.
Another series concerns Influenza B virus. The series is described as follows: Antiviral activity against Influenza virus type B infected in MDCK cells. The class given is functional, organism-based.
The subject of series [9] is Human immunodeficiency virus 2. The experiment in a line: Antiviral activity against HIV2 ROD infected in human CEM cells assessed as inhibition of virus-induced cytopathicity after 4 days. Format: functional, organism-based. The conditions noted are these: Human immunodeficiency virus 2, ROD, CCRF-CEM, 96 h. (In general: Cytopathic effects are the visible damage that an infection or toxin causes in cultured cells.)

Series [10] deals with Influenza A virus. The experiment in a line: Antiviral activity against Influenza virus type A H1N1 infected in MDCK cells. Format: functional, organism-based.
For series [11], the system named is Coxsackievirus B4. The series is described as follows: Antiviral activity against Coxsackievirus B4 infected in african green monkey Vero cells. Format: functional, organism-based.
For series [12], the target named is T1, Human immunodeficiency virus type 1 reverse transcriptase (Human immunodeficiency virus 1, UniProt Q72547). The experiment in a line: Activity at HIV1 non-nucleoside reverse transcriptase.
For series [13], the system named is Human immunodeficiency virus 1. The experiment in a line: Antiviral activity against HIV1 3B infected in human CEM cells assessed as inhibition of virus-induced cytopathicity after 4 days. The class given is functional, organism-based. The following applies: Human immunodeficiency virus 1, 3B, CCRF-CEM, 96 h.
Another series has as its system CCRF-CEM. The series is described as follows: Cytotoxicity against HIV-infected human CEM cells. The class given is cell-based. The conditions noted are these: ccrf-cem.
In series [14] the target is T1, Human immunodeficiency virus type 1 reverse transcriptase. The experiment in a line: Inhibition of HIV1 3B reverse transcriptase after 30 mins.
Series [15] can be described thus: Inhibition of HIV2 ROD reverse transcriptase after 30 mins. Further details: species or system Human immunodeficiency virus 2.

By EC50 is commonly meant the concentration that produces a half-maximal response. In general, Ki refers to a measure of affinity in units of concentration, obtained from inhibition or displacement. Consider `Cc1cc(C)nc(N2C(=O)CSC2C23CC4CC(CC(C4)C2)C3)c1` (racemic), for which the Ratio in series [1] stood at 5.5. The result (in the series with Sindbis virus; in [2]; in the series with Coxsackievirus B4 [3]; with Human alphaherpesvirus 1; with Feline coronavirus; in the series on Human alphaherpesvirus 2) was inactive. Also, the outcome (with Human respirovirus 3; in series [4]; in the series on Influenza A virus [5]; in series [7]; in [8]; with Punta Toro virus) was inactive. The result in the series with Vaccinia virus, in the series on Influenza B virus, in the series on Influenza A virus [10] and with Coxsackievirus B4 [11] was inactive. Further, the selectivity ratio in series [6] turned out to be 120. Further, the half-maximal effective concentration (EC50) in series [9] was greater than 12 µM. In [12], this molecule showed an inhibitory constant (Ki) of 12 µM.

A word on the CC50: it is the concentration giving 50% cytotoxicity. A word on the IC50: it is the midpoint of a concentration-inhibition curve. For the molecule `O=C1CSC(c2c(Cl)cccc2Cl)N1CC12CC3CC(CC(C3)C1)C2` (stereo unspecified), the outcome (in the series on Sindbis virus; in series [2]; in the series with Coxsackievirus B4 [3]; in the series on Human alphaherpesvirus 1; in the series with Feline coronavirus; in the series on Human alphaherpesvirus 2) was inactive. Further, the outcome (in the series on Human respirovirus 3; in [4]; in the series with Influenza A virus [5]; in series [7]; in [8]; in the series with Punta Toro virus) was inactive. Moreover, the result in the series with Vaccinia virus, in the series with Influenza B virus, in the series on Influenza A virus [10] and in the series on Coxsackievirus B4 [11] was inactive. The concentration giving a half-maximal response (EC50) was 1 µM in [13] and no less than 10.1 µM in series [9]. Moreover, half-maximal cytotoxicity in the series with CCRF-CEM (CC50) was put at 21.1 µM. Further, the IC50 in series [14] was 42.9 µM; in [15], no less than 600 µM. In addition, in [6], the selectivity ratio was 21.

For the molecule `O=C1CSC(c2c(F)cccc2F)N1CC12CC3CC(CC(C3)C1)C2` (stereo unspecified), the result (with Sindbis virus; in series [2]; with Coxsackievirus B4 [3]; in the series with Human alphaherpesvirus 1; in the series on Feline coronavirus; in the series with Human alphaherpesvirus 2) was inactive. Besides, the result (in the series on Human respirovirus 3; in series [4]; in the series with Influenza A virus [5]; in series [7]; in series [8]; in the series on Punta Toro virus) was inactive. Also, the outcome in the series with Vaccinia virus, in the series on Influenza B virus, in the series on Influenza A virus [10] and in the series on Coxsackievirus B4 [11] was inactive. In addition, the EC50 amounted to 11 µM in series [13] and 35.7 µM in series [9]. The CC50 with CCRF-CEM was greater than 275 µM. The IC50 in series [14] was 495 µM; in series [15], greater than 600 µM. Also, in series [6], the selectivity ratio was greater than 25.

Regarding `O=C1CSC(c2c(Cl)cccc2Cl)N1CCC12CC3CC(CC(C3)C1)C2` (stereo unspecified), the outcome (in the series with Sindbis virus; in series [2]; with Coxsackievirus B4 [3]; in the series on Human alphaherpesvirus 1; in the series on Feline coronavirus; with Human alphaherpesvirus 2) was inactive. In addition, the outcome (with Human respirovirus 3; in [4]; in the series on Influenza A virus [5]; in series [7]; in [8]; in the series with Punta Toro virus) was inactive. The outcome with Vaccinia virus, in the series on Influenza B virus, with Influenza A virus [10] and in the series on Coxsackievirus B4 [11] was inactive. The EC50 in series [13] is 3.4 µM; in series [9], no less than 9.7 µM. The same molecule gave a 50% cytotoxic concentration (CC50) in the series on CCRF-CEM of 19 µM. Also, the half-maximal inhibitory concentration (IC50) is 226 µM in [14] and greater than 600 µM in series [15]. Moreover, the selectivity ratio in series [6] was 5.5.

For `O=C1CSC(c2c(F)cccc2F)N1CCC12CC3CC(CC(C3)C1)C2` (stereo unspecified), the result (with Sindbis virus; in series [2]; in the series on Coxsackievirus B4 [3]; in the series with Human alphaherpesvirus 1; with Feline coronavirus; in the series with Human alphaherpesvirus 2) was inactive. For the same molecule, the result (in the series on Human respirovirus 3; in [4]; in the series on Influenza A virus [5]; in series [7]; in series [8]; in the series with Punta Toro virus) was inactive. The outcome in the series with Vaccinia virus, in the series on Influenza B virus, in the series with Influenza A virus [10] and in the series with Coxsackievirus B4 [11] was inactive. Besides, the EC50 in [13] is 2 µM; in [9], no less than 4 µM. The same molecule showed a CC50 in the series with CCRF-CEM of 7.9 µM. The 50% inhibitory concentration (IC50) is 31.7 µM in series [14] and no less than 600 µM in [15]. In [6], the selectivity ratio was 4.

In the case of `Cc1cc(C)nc(N2C(=O)CS[C@@H]2C23CC4CC(CC(C4)C2)C3)c1`, the result (in the series on Sindbis virus; in series [2]; with Coxsackievirus B4 [3]; with Human alphaherpesvirus 1; in the series with Feline coronavirus; with Human alphaherpesvirus 2) was inactive. Moreover, the outcome (in the series with Human respirovirus 3; in series [4]; in the series with Influenza A virus [5]; in [7]; in [8]; with Punta Toro virus) was inactive. For the same molecule, the outcome in the series on Vaccinia virus, in the series on Influenza B virus, in the series on Influenza A virus [10] and with Coxsackievirus B4 [11] was inactive. Further, the IC50 in [14] was 13.4 µM; in series [15], greater than 600 µM.

On to `O=C1CSC(c2c(F)cccc2Cl)N1CC12CC3CC(CC(C3)C1)C2` (stereo unspecified), for which the outcome (in the series with Sindbis virus; in series [2]; in the series on Coxsackievirus B4 [3]; in the series with Human alphaherpesvirus 1; with Feline coronavirus; in the series on Human alphaherpesvirus 2) was inactive. Further, the result (in the series on Human respirovirus 3; in series [4]; in the series on Influenza A virus [5]; in [7]; in [8]; in the series on Punta Toro virus) was inactive. Besides, the result with Vaccinia virus, in the series with Influenza B virus, with Influenza A virus [10] and in the series on Coxsackievirus B4 [11] was inactive. Further, the EC50 in series [13] is 2 µM; in series [9], no less than 10.5 µM. The same molecule had a CC50 in the series on CCRF-CEM of 20.2 µM. The selectivity ratio in series [6] turned out to be 10.
